The text below walks through data of ChEMBL document CHEMBL5335855, “Structure-Activity Relationships of Natural C-9-Methyl-Substituted 10-Membered Lactones and Their Semisynthetic Derivatives” (J Nat Prod, 2024).

Values after ≈ are worked out from the molar mass of the structure shown. Values joined by “and” are separate entries in the source; they are usually repeats but may differ in a detail not shown here. Equal values may be shown once. Where only a bound is given, the exact number is not on record here.

Data set [1] can be described thus: Phytotoxicity in Sonchus arvensis assessed as diameter of lesions at 2 mg/ml incubated for 120 hrs by leaf puncture assay. Format: toxicity.
Data set [2] deals with Bacillus subtilis. The experiment in a line: Antibacterial activity against Bacillus subtilis NCTC […] assessed as zone of inhibition at 100 ug per disc incubated for 24 hrs by agar diffusion assay. Format: functional. To be noted: read-out: DIZ.
The nature of data set [3]: Cytotoxicity against Spodoptera frugiperda Sf9 cells incubated for 24 hrs by trypan blue staining based assay. Format: toxicity, cell-based. To be noted: read-out: LC50.
The subject of data set [4] is Aphididae. The experiment in a line: Aphicidal activity against insects at 1 mg/ml measured after 24 hrs. The class given is functional.
A short description of data set [5]: Toxicity in Galleria mellonella larvae upto 420 mg/kg treated for 14 days in dark. The class given is organism-based. To be noted: in vivo, 336 h, time 14 day.
The subject of data set [6] is Paramecium caudatum. The experiment in a line: Toxicity in Paramecium caudatum. The class given is organism-based. The following applies: in vivo.
Data set [7] can be described thus: Toxicity in Galleria mellonella larvae treated for 14 days in dark. The following applies: 336 h, time 14 day.
In data set [8] the test system is Schizaphis graminum. Put plainly: Aphicidal activity against Schizaphis graminum at 1 mg/ml measured after 24 hrs. The class given is functional.
Data set [9] has as its system MCF7. Put plainly: Cytotoxicity against human MCF7 cells measured after 24 hrs by MTT assay. The class given is functional, cell-based. The following applies: MCF7, 24 h.
The nature of data set [10]: Cytotoxicity against mouse LP07 cells measured after 24 hrs by MTT assay. Format: functional, cell-based. The following applies: LP07, 24 h.
A short description of data set [11]: Cytotoxicity against mouse LM3 cells measured after 24 hrs by MTT assay. The class given is functional, cell-based. To be noted: LM3, 24 h.

With `CC(=O)O[C@@H]1CC[C@@H](C)OC(=O)/C=C\[C@@H]2O[C@H]21`, the values for the Activity in [1] and in [5] were 5.2 mm and “Non-Toxic”, respectively. Besides, the zone of inhibition at 100 µg/disc in [2] came out at 0 mm. Moreover, the CC50 at 24 h in [3] was > 100 µg/mL and > 420 µM. In data set [4], this compound displayed a mortality at 1000 µg/mL of 23%.
Consider `C[C@@H]1CC[C@@H](O)[C@@H]2O[C@H]2/C=C\C(=O)O1`, for which the Activity in [1] is listed as 5.5 mm; in data set [5], “Non-Toxic”. Besides, the zone of inhibition at 100 µg/disc in data set [2] stood at 0 mm. For the same compound, the CC50 at 24 h in data set [3] is > 100 µg/mL and > 500 µM. In addition, the mortality at 1000 µg/mL in data set [4] amounted to 8%.
On to `C[C@@H]1CC[C@@H](O)[C@H](O)CCCC(=O)O1`, for which the Activity in [1] is reported as 0 mm; in data set [5], “Non-Toxic”. The zone of inhibition at 100 µg/disc in [2] was determined as 0 mm. The compound further returned a mortality at 1000 µg/mL in data set [4] of 33%.
Take `C[C@@H]1C[C@H](O)/C=C/C(=O)/C=C\C(=O)O1`: the values for the Activity in data set [1], in [5] and in [6] were 4.3 mm, “Non-Toxic” and “Non-Toxic”, respectively. The zone of inhibition at 100 µg/disc in [2] stood at 45 mm. Besides, the CC50 at 24 h in data set [3] is < 1 µg/mL and < 5 µM. In [4], this compound had a mortality at 1000 µg/mL of 10%.
Turning to `C[C@H]1OC(=O)CCC(=O)C[C@H](O)[C@H]2O[C@H]21`, the Activity in data set [1] was 1.1 mm; in data set [5], “Non-Toxic”. For the same compound, in [2], the zone of inhibition at 100 µg/disc came out at 0 mm. This compound gave a mortality at 1000 µg/mL in data set [4] of 13%.
Turning to `C[C@@H]1CCC(=O)CCCCC(=O)O1`, the Activity in [1] is listed as 0 mm; in data set [5] it was “Non-Toxic”. For the same compound, the zone of inhibition at 100 µg/disc in data set [2] came out at 0 mm. For the same compound, in data set [3], the CC50 at 24 h was > 100 µg/mL and > 540 µM.
`CCC[C@H]1OC(=O)CCC/C=C/C(=O)[C@@H]1O` [STAGONOLIDE]: the Activity in [1] is 6.4 mm. Moreover, the zone of inhibition at 100 µg/disc in [2] was 38 mm. In addition, the CC50 at 24 h in [3] was 3 µg/mL and 13 µM. In [7], this compound came in with an LC50 of 300 mg/kg. The compound also came in with a mortality at 1000 µg/mL in data set [8] of 15%.
Regarding `CCC[C@H]1OC(=O)CCC/C=C/[C@H](O)[C@@H]1O` [HERBARUMIN I], the Activity in data set [1] is on record as 4.8 mm; in data set [5], “Non-Toxic”. Besides, the zone of inhibition at 100 µg/disc in [2] was 0 mm. The compound further yielded a mortality at 1000 µg/mL in data set [8] of 54%.
Turning to `C[C@H]1OC(=O)CC[C@H](O)/C=C/[C@H]2O[C@@H]12`, the figures for the Activity in data set [1] and in data set [5] were 0 mm and “Non-Toxic”, respectively. Moreover, in data set [2], the zone of inhibition at 100 µg/disc came to 0 mm. In data set [4], this compound gave a mortality at 1000 µg/mL of 0%.
On to `C[C@@H]1CC[C@@H](O)CCCCC(=O)O1`, for which the Activity is 0 mm in data set [1] and “Non-Toxic” in [5]. The zone of inhibition at 100 µg/disc in data set [2] turned out to be 0 mm. Also, in data set [3], the CC50 at 24 h was > 100 µg/mL and > 540 µM. The compound further yielded a mortality at 1000 µg/mL in data set [4] of 0%.
`C[C@@H]1C[C@H](O)/C=C/[C@@H](O)/C=C\C(=O)O1` [MODIOLIDE A]: the IC50 is 61 µg/mL (≈ 308 µM) in data set [9], greater than 125 µg/mL in data set [10] and 292 µg/mL (≈ 1470 µM) in data set [11].
For `C[C@@H]1CC[C@@H](O)/C=C/C=C\C(=O)O1` [STAGONOLIDE E], the values for the Activity in data set [1] and in data set [5] were 1.7 mm and “Non-Toxic”, respectively. For the same compound, the zone of inhibition at 100 µg/disc in data set [2] came to 0 mm. The same compound yielded a mortality at 1000 µg/mL in [4] of 67%.
In the case of `CC(=O)O[C@H]1/C=C/C=C\C(=O)O[C@H](C)CC1`, the Activity in data set [1] was 0 mm. Also, the zone of inhibition at 100 µg/disc in data set [2] was found to be 0 mm. Besides, in data set [4], the mortality at 1000 µg/mL stood at 55%. The compound also returned an LC50 in data set [7] of 160 mg/kg.
